Read-outs that look alike come from different tables or passages of the source.

Test [1] concerns the target Escherichia coli DNA gyrase A/B tetramer (Escherichia coli (strain K12), UniProt P0AES4+P0AES6). Description: DNA gyrase supercoiling activity fluorescence polarisation assay. The note with it: Eco Gyr FP Mean IC50, E. coli DNA gyrase supercoiling, 0.3 mM ATP. It counts as biochemical. Put shortly:
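Relaxed triplex-forming plasmid (130 micrograms/mL) supercoiled by 5 nM gyrase A/B tetramer in Tris-HCl pH 7.5 buffer with 4 mM MgCl2 and 0.3 mM ATP, ~30 min, ambient temperature. Quenched with 5′-BODIPY-FL triplex probe at pH 3.5; fluorescence anisotropy read after 60 min. IC50 by nonlinear regression against two control reactions.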
(Polarisation of emitted light reports the rotation of a fluorescent probe.)

For another test, the system named is Streptococcus pneumoniae. Kind of test: Susceptibility testing (MIC) Assay 1, broth microdilution. Type of test: cell-based. (In general: Dilution methods test growth across graded concentrations, often in twofold steps.)
A further test concerns Streptococcus pyogenes. The description is as above. It counts as cell-based. To be noted: Streptococcus pyogenes, in vivo strain, read-out: Spy MIC.
The next test has as its system Staphylococcus aureus. The test is described as above. The note with it: Staphylococcus aureus. It counts as cell-based.
In the next test the test system is Klebsiella pneumoniae. Description: Susceptibility testing (MIC) Assay 2, broth microdilution. It counts as cell-based.
The subject of the next test is Haemophilus influenzae. The test is described as above. It counts as cell-based.
For a further test, the system named is Escherichia coli. The description is as above. It counts as cell-based.
The test system of a further test is Pseudomonas aeruginosa. The description is as above. It counts as cell-based. To be noted: PAO1, read-out: Pae MIC.
[2] abbreviates: in vivo strain (footnote b), read-out: Spn(b) MIC.
The mark [3] stands for this setting: in vivo strain (footnote c), read-out: Spn(c) MIC.
Where [4] appears, read: Staphylococcus aureus in vivo strain, MSQS, read-out: Sau(d) MIC.
The mark [5] stands for this setting: in vivo strain, MRQR, read-out: Sau(e) MIC.
Where [6] appears, read: clinical isolate, mucoid, read-out: Kpn MIC.
[7] abbreviates: ATCC51907, Haemophilus influenzae, ATCC 51907, in vivo strain, read-out: Hin MIC.

As a reminder, the IC50 is the point on the concentration scale where inhibition reaches its midpoint. Low values mean inhibition by little substance, high ones a need for much substance. In the case of `C[C@@H]1CN2c3c(cc4c(N5C(=O)OC[C@@H]5C#N)noc4c3F)CC3(C(=O)NC(=O)NC3=O)[C@H]2[C@H](C)O1` [Example 41, (4S)-3-[(2R,4S,4aS)-11-Fluoro-2,4-dimethyl-2′,4′,6′-trioxo-1,1′,2,3′,4,4′,4a,6′-octahydro-2′H,6H-spiro[1,4-oxazino[4,3-a][1,2]oxazolo[4,5-g]quinoline-5,5′-pyrimidin]-8-yl]-2-oxo-1,3-oxazolidine-4-carbonitrile], in test [1], the IC50 was determined as 460 nM. For the same molecule, the MIC came to 0.39 µM with Streptococcus pneumoniae (setting [2]); 0.78 µM with Streptococcus pneumoniae (setting [3]); 0.78 µM with Streptococcus pyogenes (Streptococcus pyrgenes); 0.78 µM in the test with Staphylococcus aureus (setting [4]); 1.6 µM in the test with Staphylococcus aureus (setting [5]); 1.6 µM in the test on Staphylococcus aureus (serum, read-out: Sau(f) MIC). Also, the MIC with Klebsiella pneumoniae (setting [6]) was more than 200 µM; in the test on Haemophilus influenzae (setting [7]), 0.78 µM; in the test on Escherichia coli (K12, read-out: Eco MIC), 25 µM; with Pseudomonas aeruginosa, more than 200 µM.
On to `C[C@@H]1CN2c3c(cc4c(N5C(=O)O[C@H](C)[C@@H]5C)noc4c3F)CC3(C(=O)NC(=O)NC3=O)[C@H]2[C@H](C)O1` [Example 23], for which, in test [1], the IC50 turned out to be 520 nM. In addition, the MIC was 0.78 µM with Streptococcus pneumoniae (setting [2]); 0.78 µM with Streptococcus pneumoniae (setting [3]); 0.39 µM in the test with Streptococcus pyogenes (Streptococcus pyrgenes); 0.39 µM with Staphylococcus aureus (setting [4]); 0.78 µM in the test on Staphylococcus aureus (setting [5]); 0.78 µM in the test on Staphylococcus aureus (serum, read-out: Sau(f) MIC). The MIC in the test on Klebsiella pneumoniae (setting [6]) is 100 µM; in the test with Haemophilus influenzae (setting [7]), 0.39 µM; with Escherichia coli (K12, read-out: Eco MIC), 6.2 µM; with Pseudomonas aeruginosa, more than 200 µM.
For the molecule `C[C@@H]1CN2c3c(cc4c(N5C[C@@H](CF)OC5=O)noc4c3F)CC3(C(=O)NC(=O)NC3=O)[C@H]2[C@H](C)O1` [Example 19], the midpoint of inhibition in test [1], the IC50, lay at 160 nM. The MIC in the test on Streptococcus pneumoniae (setting [2]) is less than 0.2 µM; in the test with Streptococcus pneumoniae (setting [3]), 0.24 µM; in the test on Streptococcus pyogenes (Streptococcus pyrgenes), less than 0.2 µM; with Staphylococcus aureus (setting [4]), 0.14 µM; in the test on Staphylococcus aureus (setting [5]), 0.78 µM; in the test on Staphylococcus aureus (serum, read-out: Sau(f) MIC), 0.28 µM. In addition, the MIC is 200 µM with Klebsiella pneumoniae (setting [6]); 0.28 µM with Haemophilus influenzae (setting [7]); 8.8 µM in the test on Escherichia coli (K12, read-out: Eco MIC); more than 200 µM in the test on Pseudomonas aeruginosa.
Take `C[C@@H]1CN2c3c(cc4c(N5C(=O)OC[C@H]5c5ccccc5)noc4c3F)CC3(C(=O)NC(=O)NC3=O)[C@H]2[C@H](C)O1` [Example 8, (2R,4S,4aS)-11-Fluoro-2,4-dimethyl-8-[(4R)-2-oxo-4-phenyl-1,3-oxazolidin-3-yl]-1,2,4,4a-tetrahydro-2′H,6H-spiro[1,4-oxazino[4,3-a][1,2]oxazolo[4,5-g]quinoline-5,5′-pyrimidine]-2′,4′,6′(1′H,3′H)-trione]: in test [1], the IC50 turned out to be 7300 nM. The MIC in the test with Streptococcus pneumoniae (setting [2]) was 50 µM; in the test on Streptococcus pneumoniae (setting [3]), 50 µM; with Streptococcus pyogenes (Streptococcus pyrgenes) it was 12 µM; in the test on Staphylococcus aureus (setting [4]), 6.2 µM; in the test on Staphylococcus aureus (setting [5]), 12 µM; in the test on Staphylococcus aureus (serum, read-out: Sau(f) MIC) it was 200 µM. Besides, the MIC in the test with Klebsiella pneumoniae (setting [6]) is more than 200 µM; in the test with Haemophilus influenzae (setting [7]), 12 µM; in the test on Escherichia coli (K12, read-out: Eco MIC), more than 200 µM; in the test with Pseudomonas aeruginosa, more than 200 µM.
As to `C=CC[C@H]1COC(=O)N1c1noc2c(F)c3c(cc12)CC1(C(=O)NC(=O)NC1=O)[C@H]1[C@H](C)O[C@H](C)CN31` [Example 25, (2R,4S,4aS)-8-((S)-4-Allyl-2-oxooxazolidin-3-yl)-11-fluoro-2,4-dimethyl-2,4,4a,6-tetrahydro-1H,1′H-spiro[isoxazolo[4,5-g][1,4]oxazino[4,3-a]quinoline-5,5′-pyrimidine]-2′,4′,6′(3′H)-trione], in test [1], the IC50 worked out at 260 nM. Moreover, the MIC was 0.78 µM in the test on Streptococcus pneumoniae (setting [2]); 0.78 µM in the test with Streptococcus pneumoniae (setting [3]); 0.78 µM in the test with Streptococcus pyogenes (Streptococcus pyrgenes); 0.39 µM with Staphylococcus aureus (setting [4]); 0.39 µM in the test with Staphylococcus aureus (setting [5]); 1.6 µM in the test with Staphylococcus aureus (serum, read-out: Sau(f) MIC). The MIC in the test with Klebsiella pneumoniae (setting [6]) was 200 µM; with Haemophilus influenzae (setting [7]), 0.78 µM; in the test with Escherichia coli (K12, read-out: Eco MIC), 12 µM; in the test with Pseudomonas aeruginosa, more than 200 µM.
In test [1], `C[C@@H]1CN2c3c(cc4c(N5C(=O)OC[C@H]5c5ccccn5)noc4c3F)CC3(C(=O)NC(=O)NC3=O)[C@H]2[C@H](C)O1` [Example 55, (2R,4S,4aS)-11-Fluoro-2,4-dimethyl-8-((R)-2-oxo-4-(pyridin-2-yl)oxazolidin-3-yl)-2,4,4a,6-tetrahydro-1H,1′H-spiro[isoxazolo[4,5-g][1,4]oxazino[4,3-a]quinoline-5,5′-pyrimidine]-2′,4′,6′(3′H)-trione] registered an IC50 of 150 nM. Also, the MIC with Streptococcus pneumoniae (setting [2]) is 0.78 µM; in the test with Streptococcus pneumoniae (setting [3]), 0.78 µM; with Streptococcus pyogenes (Streptococcus pyrgenes) it was 0.78 µM; in the test with Staphylococcus aureus (setting [4]), 0.78 µM; in the test with Staphylococcus aureus (setting [5]), 1.6 µM; in the test with Staphylococcus aureus (serum, read-out: Sau(f) MIC) it was 1.6 µM. Further, the MIC with Klebsiella pneumoniae (setting [6]) was more than 200 µM; in the test on Haemophilus influenzae (setting [7]), 0.39 µM; in the test with Escherichia coli (K12, read-out: Eco MIC), 50 µM; in the test on Pseudomonas aeruginosa it was more than 200 µM.
In turn, `C[C@@H]1CN2c3c(cc4c(N5C[C@H](C#N)OC5=O)noc4c3F)CC3(C(=O)NC(=O)NC3=O)[C@H]2[C@H](C)O1` [Example 75, (5R)-3-[(2R,4S,4aS)-11-Fluoro-2,4-dimethyl-2′,4′,6′-trioxo-1,1′,2,3′,4,4′,4a,6′-octahydro-2′H,6H-spiro[1,4-oxazino[4,3-a][1,2]oxazolo[4,5-g]quinoline-5,5′-pyrimidin]-8-yl]-2-oxo-1,3-oxazolidine-5-carbonitrile] gave an IC50 in test [1] of 710 nM. Further, the MIC was 0.78 µM in the test on Streptococcus pneumoniae (setting [2]); 1.62 µM in the test with Streptococcus pneumoniae (setting [3]); 0.55 µM in the test on Streptococcus pyogenes (Streptococcus pyrgenes); 0.28 µM with Staphylococcus aureus (setting [4]); 2.2 µM with Staphylococcus aureus (setting [5]); 0.39 µM in the test with Staphylococcus aureus (serum, read-out: Sau(f) MIC). For the same molecule, the MIC was more than 200 µM in the test with Klebsiella pneumoniae (setting [6]); 0.78 µM in the test on Haemophilus influenzae (setting [7]); 100 µM in the test on Escherichia coli (K12, read-out: Eco MIC); more than 200 µM with Pseudomonas aeruginosa.
Regarding `C[C@@H]1CN2c3c(cc4c(N5C(=O)O[C@H](C)[C@@H]5CF)noc4c3F)CC3(C(=O)NC(=O)NC3=O)[C@H]2[C@H](C)O1` [Example 78, (2R,4S,4aS)-11-Fluoro-8-((4R,5R)-4-(fluoromethyl)-5-methyl-2-oxooxazolidin-3-yl)-2,4-dimethyl-2,4,4a,6-tetrahydro-1H,1′H-spiro[isoxazolo[4,5-g][1,4]oxazino[4,3-a]quinoline-5,5′-pyrimidine]-2′,4′,6′(3′H)-trione], it took 440 nM to reach half-maximal inhibition in test [1] (IC50). In addition, the MIC turned out to be 2 µg/mL in the test with Streptococcus pneumoniae (ATCC49619, Streptococcus pneumoniae, ATCC 49619, read-out: Spn(c) MIC); 2 µg/mL in the test with Streptococcus pneumoniae (in vivo strain, read-out: Spn(b) MIC); 1 µg/mL in the test on Streptococcus pyogenes (Streptococcus pyrogenes); 1 µg/mL with Staphylococcus aureus (ATCC29213, Staphylococcus aureus, in vivo strain, ATCC 29213, read-out: Sau(d) MIC); 1 µg/mL in the test with Staphylococcus aureus (MRSA, in vivo strain, MRSA, read-out: Sau(f) MIC); 2 µg/mL in the test on Staphylococcus aureus (setting [5]). The MIC in the test with Klebsiella pneumoniae (ATCC700603, ATCC 700603, read-out: Kpn(e) MIC) is more than 64 µg/mL; in the test with Klebsiella pneumoniae (clinical isolate, mucoid, read-out: Kpn(d) MIC) it was more than 64 µg/mL; in the test on Haemophilus influenzae (ATCC49247, Haemophilus influenzae, ATCC 49247, read-out: Hin MIC), 2 µg/mL; in the test with Escherichia coli (ATCC25922, Escherichia coli, in vivo strain, ATCC 25922, read-out: Eco(b) MIC), 16 µg/mL; with Escherichia coli (ATCC35218, Escherichia coli, ATCC 35218, read-out: Eco(c) MIC), 32 µg/mL; in the test on Pseudomonas aeruginosa (Pseudomonoas aeruginosa) it was more than 64 µg/mL.
As to `C=C[C@H]1COC(=O)N1c1noc2c(F)c3c(cc12)CC1(C(=O)NC(=O)NC1=O)[C@H]1[C@H](C)O[C@H](C)CN31` [Example 39, (2R,4S,4aS)-11-Fluoro-2,4-dimethyl-8-((S)-2-oxo-4-vinyloxazolidin-3-yl)-2,4,4a,6-tetrahydro-1H,1′H-spiro[isoxazolo[4,5-g][1,4]oxazino[4,3-a]quinoline-5,5′-pyrimidine]-2′,4′,6′(3′H)-trione], the half-inhibitory concentration (IC50) in test [1] came out at 97 nM. For the same molecule, the MIC in the test with Streptococcus pneumoniae (setting [2]) stood at 0.78 µM; in the test on Streptococcus pneumoniae (setting [3]), 0.78 µM; in the test with Streptococcus pyogenes (Streptococcus pyrgenes) it was 0.39 µM; in the test on Staphylococcus aureus (setting [4]), 0.39 µM; in the test on Staphylococcus aureus (setting [5]), 1.6 µM; with Staphylococcus aureus (serum, read-out: Sau(f) MIC), 1.6 µM. Further, the MIC with Klebsiella pneumoniae (setting [6]) was 200 µM; in the test with Haemophilus influenzae (setting [7]), 0.39 µM; in the test with Escherichia coli (K12, read-out: Eco MIC) it was 25 µM; in the test with Pseudomonas aeruginosa it was more than 200 µM.
The molecule `C[C@@H]1CN2c3c(cc4c(N5C(=O)OC[C@@H]5[C@H](C)O)noc4c3F)CC3(C(=O)NC(=O)NC3=O)[C@H]2[C@H](C)O1` [Example 70] came in with an IC50 in test [1] of 610 nM. Further, the MIC in the test with Streptococcus pneumoniae (setting [2]) came out at 1.6 µM; in the test with Streptococcus pneumoniae (setting [3]), 3.1 µM; with Streptococcus pyogenes (Streptococcus pyrgenes), 1.6 µM; in the test on Staphylococcus aureus (setting [4]), 12 µM; with Staphylococcus aureus (setting [5]), 50 µM; with Staphylococcus aureus (serum, read-out: Sau(f) MIC), 25 µM. Besides, the MIC with Klebsiella pneumoniae (setting [6]) was more than 200 µM; in the test on Haemophilus influenzae (setting [7]), 1.6 µM; with Escherichia coli (K12, read-out: Eco MIC) it was 200 µM; in the test on Pseudomonas aeruginosa, more than 200 µM.

Values taken from patent publication US8889671B2, “Compounds and methods for treating bacterial infections” (AstraZeneca AB, priority 2013, dated 2014).
